According to patent US4619929A, “Phenylpiperazine derivatives of hetarylphenols and hetarylanilines, their preparation, and therapeutic agents containing these compounds” (BASF Aktiengesellschaft, priority 1981, dated 1986):
Where two headings read alike, the source gives them in different places.

What was measured:
[1] = Hypotensive action on rats under urethane narcosis, blood pressure measured in the carotid artery (ED 20%); type: in vivo, Sprague-Dawley rats; settings: for Hypotensive effect R.A. (relative activity; chlorpromazine = 1.00) / ED20: rat; for Separation between sedative action and hypotensive action versus chlorpromazine: in words; for Hypotensive action in words: blood pressure lowering doses versus chlorpromazine: narcotized rats; for Hypotensive side effect, in words: versus chlorpromazine
Procedure: The blood pressure was measured in the carotid artery. The substance was administered either by introduction into a jugular vein (as an aqueous solution, at the rate of 1 ml/kg) or intraperitoneally as a suspension in tragacanth (at the rate of 10 ml/kg). The ED 20%, i.e. the dose which produces a 20% lowering of the blood pressure, was determined from the linear regression of log dose (mg/kg) and relative lowering of the blood pressure (Δ %).

[2] = Sedative action: orientation hypermotility of mice induced by a new environment (ED 50%); type: in vivo, female NMRI mice; settings: for Sedative effect R.A. (relative activity; chlorpromazine = 1.00) / ED50: mouse, oral administration; for Inhibition of the orientation hypermotility of mice (sedative-neuroleptic action), in words / Sedative action compared with chlorpromazine, in words: mice
Procedure: The substance was administered orally to 4-8 groups each comprising 3 female NMRI mice. The orientation hypermotility induced by a new environment was determined photoelectrically, 30 minutes after administration of the substance, over a period of 30 minutes. The ED 50%, i.e. the dose which produces 50% reduction in orientation hypermotility compared to placebo-treated control […], is determined.

[3] = Table 1, quotient defined by formula drawing 8 (sedative ED 50% mouse oral, hypotensive ED 20% rat i.v.)
[4] = Table 1, intravenous administration
[5] = Table 1, intravenous administration, read-out: Hypotensive effect ED 20% (dose which reduces the blood pressure by 20%)
[6] = Table 1, read-out: Sedative effect ED 50% (dose which reduces the motility by 50%)
[7] = Table 2, defined by formula drawing 9, hypotensive effect i.v.
[8] = Table 2, intravenous (i.v.), read-out: Hypotensive effect ED 20%
[9] = Table 2, read-out: Sedative effect ED 50%
[10] = Table 2, defined by formula drawing 9, hypotensive effect i.p.
[11] = Table 2, intraperitoneal (i.p.)
[12] = ip, Table 2, intraperitoneal (i.p.), read-out: Hypotensive effect ED 20%

Compound	Q [1, 3]	Hypotensive effect R.A. (relative activity; chlorpromazine = 1.00) [1, 4]	ED20 [1, 5] [mg/kg]	Separation between sedative action and hypotensive action versus chlorpromazine [1]	Hypotensive action in words: blood pressure lowering doses versus chlorpromazine [1]	Sedative effect R.A. (relative activity; chlorpromazine = 1.00) ([2]; Table 1)	ED50 [2, 6] [mg/kg]	Q [1, 7]	Hypotensive effect R.A. (relative activity; chlorpromazine = 1.00) ([1]; Table 2, intravenous (i.v.))	ED20 [1, 8] [mg/kg]	Hypotensive side effect, in words [1]	Sedative effect R.A. (relative activity; chlorpromazine = 1.00) ([2]; Table 2)	ED50 [2, 9] [mg/kg]	Inhibition of the orientation hypermotility of mice (sedative-neuroleptic action), in words [2]	Sedative action compared with chlorpromazine, in words [2]	Q [1, 10]	Hypotensive effect R.A. (relative activity; chlorpromazine = 1.00) [1, 11]	ED20 [1, 12] [mg/kg]
COc1ccccc1N1CCN(CCCOc2ccc(-c3nnco3)cc2)CC1 [Example 11, 1-[4-(1,3,4-Oxadiazol-2-yl)-phenoxy]-3-[4-(2-methoxyphenyl)-piperazin-1-yl]-propane]	307	3.71	0.007	substantially greater	significantly lower than in the case of chlorpromazine	0.98	2.15											
COc1ccccc1N1CCN(CCCOc2ccccc2-c2nnc(C)o2)CC1 [Example 3, 1-[2-(5-Methyl-1,3,4-oxadiazol-2-yl)-phenoxy]-3-[4-(2-methoxyphenyl)-piperazin-1-yl]-propane]	534	0.68	0.0384	substantially greater		0.10	20.5											
Fc1ccc(N2CCN(CCCNc3ccc(-n4ccnc4)cc3)CC2)cc1 [Example 15, 1-[4-(Imidazol-1-yl)-phenylamino]-3-[4-(4-fluorophenyl)-piperazin-1-yl]-propane]								0.16	0.003	10	non-hypotensive action up to doses of 1 or 10 mg/kg	1.3	1.62	powerful inhibition of the orientation hypermotility of mice	clearly surpassed			
Fc1ccc(N2CCN(CCCOc3ccc(-n4ccnc4)cc3)CC2)cc1 [Example 10]								3.0	0.03	1	non-hypotensive action up to doses of 1 or 10 mg/kg	0.69	3.05	powerful inhibition of the orientation hypermotility of mice	almost achieved			
COc1ccccc1N1CCN(CCCOc2cccc(-c3nnco3)c2)CC1 [Example 6, 1-[3-(1,3,4-Oxadiazol-2-yl)-phenoxy]-3-[4-(2-methoxyphenyl)-piperazin-1-yl]-propane]	417	3.38	0.0077	substantially greater	significantly lower than in the case of chlorpromazine	0.66	3.21											
COc1ccccc1N1CCN(CCCOc2ccccc2-c2nnco2)CC1 [Example 1]	2,050	3.25	0.008	substantially greater	significantly lower than in the case of chlorpromazine	0.13	16.4											
Fc1ccc(N2CCN(CCCNc3ccc(-n4cncn4)cc3)CC2)cc1 [Example 14, 1-[4-(1,2,4-Triazol-1-yl)-phenylamino]-3-[4-(4-fluorophenyl)-piperazin-1-yl]-propane]											non-hypotensive action up to doses of 1 or 10 mg/kg	2.59	0.818	powerful inhibition of the orientation hypermotility of mice	clearly surpassed	0.08	0.02	10
CN(C)CCCN1c2ccccc2Sc2ccc(Cl)cc21 [chlorpromazine, reference compound]	81	1.00	0.026			1.00		81.0	1.0	0.026	observed even at low doses	1.0	2.11			12.9	1.0	0.164
COc1ccccc1N1CCN(CCCOc2cccc(-c3nnc(C)o3)c2)CC1 [Example 7, 1-[3-(5-Methyl-1,3,4-oxadiazol-2-yl)-phenoxy]-3-[4-(2-methoxyphenyl)-piperazin-1-yl]-propane]	312	2.17	0.0012	substantially greater	significantly lower than in the case of chlorpromazine	0.56	3.74											
